Source: PubChem BioAssay (NCI)
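In this assay, cells in 96-well plates receive the compound at five concentrations for 48 hours. Endpoints are linearly interpolated between the surrounding concentrations. TGI: concentration producing complete growth inhibition.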

Assays:
Assay in all cases: inhibition of tumour cell growth, NCI panel, 48 h
SF-268 CNS = system: SF-268 CNS
HCC-2998 colon = system: HCC-2998 colon
SW-620 colon = system: SW-620 colon
IGROV1 ovarian = system: IGROV1 ovarian
MALME-3M melanoma = system: MALME-3M melanoma
OVCAR-4 ovarian = system: OVCAR-4 ovarian
TK-10 renal = system: TK-10 renal
COLO 205 colon = system: COLO 205 colon
U251 CNS = system: U251 CNS
HT29 colon = system: HT29 colon
NCI-H226 lung = system: NCI-H226 lung
KM12 colon = system: KM12 colon
ACHN renal = system: ACHN renal
SNB-75 CNS = system: SNB-75 CNS
RXF 393 renal = system: RXF 393 renal
SK-MEL-2 melanoma = system: SK-MEL-2 melanoma
NCI-H460 lung = system: NCI-H460 lung
NCI-H522 lung = system: NCI-H522 lung
HL-60(TB) leukemia = system: HL-60(TB) leukemia

SMILES	TGI (SF-268 CNS) [µM]	TGI (HCC-2998 colon) [µM]	TGI (SW-620 colon) [µM]	TGI (IGROV1 ovarian) [µM]	TGI (MALME-3M melanoma) [µM]	TGI (OVCAR-4 ovarian) [µM]	TGI (TK-10 renal) [µM]	TGI (COLO 205 colon) [µM]	TGI (U251 CNS) [µM]	TGI (HT29 colon) [µM]	TGI (NCI-H226 lung) [µM]	TGI (KM12 colon) [µM]	TGI (ACHN renal) [µM]	TGI (SNB-75 CNS) [µM]	TGI (RXF 393 renal) [µM]	TGI (SK-MEL-2 melanoma) [µM]	TGI (NCI-H460 lung) [µM]	TGI (NCI-H522 lung) [µM]	TGI (HL-60(TB) leukemia) [µM]
c1ccc(C2SCc3nc4cc5ccccc5cc4n32)cc1 (centres undefined)	> 100	> 100	> 100	> 100	> 100	> 100	> 100	> 100	> 100	> 100	> 100	> 100	> 100	> 100	> 100	> 100			
O=c1oc2nc(-c3ccccc3)cc(C(F)(F)F)c2n1Cc1ccccc1	> 100	> 100	> 100	> 43.5	98.5	> 100	> 100	> 100	> 100	> 100	> 100	> 100	> 100		> 30.3	> 100	> 100	> 100	
Cc1ccc(S(=O)(=O)/N=C(\N)N(C)N=O)cc1	> 100		> 100	> 100	> 100	> 100	> 100	> 100	> 100	> 100	> 100	> 100		> 100	> 100	> 100	> 100	> 100	> 100
O=C1c2ccccc2-c2c1c(-c1ccc([N+](=O)[O-])cc1)nc1ccc3ccccc3c21	> 100	> 100	> 100		> 100	> 100		> 100	> 100	> 100	> 100	> 100	> 100	> 100		> 100	> 100		
COC(=O)Nc1nc2ccc(S(=O)(=O)n3nnc4ccccc43)cc2[nH]1	> 100		> 100	> 100	> 100	> 100		> 100	> 100	> 100		> 100	> 100	21.4	36.1	> 100	> 100	> 100	> 100
CCCCCC[C@H]1CC(=O)C2CCCC[C@@]23CC[C@H](CCl)N13 (some centres undefined) (tested in a mixture with another compound)	> 100	> 100		> 100	> 100	> 100	> 100		> 100	> 100		> 100	> 100	81.6		> 100	> 100	37.5	46.5
C=CCCCC1SC2=C(CC)CCCN2C1=O (centres undefined)	> 100		> 100	> 100	> 100	> 100	> 100	> 100	> 100	> 100	> 100	> 100	> 100		> 100	> 100		> 100	> 100
C=CCC(CC=O)(C(=O)OCC)C(=O)OCC	> 100		> 100	> 100	> 100	> 100	> 100	> 100	> 100	> 100	> 100	> 100	> 100	> 100	> 100	> 100	> 100	> 100	> 100
COc1cc(/C=C/C(=O)OCCc2ccccc2)ccc1O	47.4	41.3	41.2	28	31.7	26.1	28.3	34.8	29.5	44.3		30.3	33.9	30.2		42.7	37.1	22.1	40.2
COc1ccc(OC)c(C23CCCC(C2)N(C)CC3)c1 (centres undefined)	> 100					62.1	> 100		27.6	49.1		33.5	78.1		61.2	53	52		
O1C2C1C1OC1C1OC1C1OC21 (centres undefined)	> 100	> 100			> 100	> 100	> 100	> 100	> 100	> 100	> 100	> 100	> 100	> 100		> 100		> 100	
COc1ccc2c(c1)c1c(n2CCN(C)C)-c2cccc(OC)c2CC1	38.9	34.9		39		46.9	41.5	27.7	32.6	14	17.1	25.4	38.8	18.9		30.2	41.5	15.6	
CN(Cc1cnc2nc(N)nc(N)c2n1)c1ccc(C(=O)NCS(=O)(=O)O)cc1	> 100	> 100	> 100	> 100	> 100	> 100	> 100	> 100	> 100	> 100	> 100	> 100	> 100	> 100		> 100	> 100	> 100	
N#Cc1nc(COCc2ccccc2)oc1N	> 100	> 100	> 100	> 100	> 100	> 100	> 100	> 100	> 100	> 100	> 100	> 100	> 100	> 100	> 100	> 100		> 100	
COc1ccc(N=C2C(=Nc3ccc(OC)cc3)N(S(=O)(=O)c3ccccc3)C(=S)N2c2ccccc2)cc1	> 100	> 100	> 100	> 100	> 100		> 100	> 100	> 100	> 100	> 100	> 100	> 100	> 100	> 100	> 100	> 100	> 100	
O=c1oc2ccccc2c(O)c1C1c2c(c3ccccc3oc2=O)Oc2c1c(=O)oc1ccccc21	94	41.1	> 100	> 100	> 100	> 100	> 100	> 100	> 100	98	64	57.9	62.9	> 100		> 100	31.7	> 100	
CC(Oc1ccc(OCC2CCCCC2)cc1)C(N)=O (centres undefined)	> 100		> 100		> 100	> 100	> 100		> 100	> 100	> 100	> 100	> 100	> 100		> 100	> 100	> 100	> 100
CN(C)CCNC(=O)Cn1cc([N+](=O)[O-])c(=O)c2ccccc21	> 100	> 100	> 100	> 100	> 100		> 100	> 100	> 100	> 100	> 100	> 100	> 100	> 100		> 100	> 100	> 100	> 100
Cc1cccc(/C=C2\CCCc3ccccc3C2=O)c1	29.6		30.7	59.6	35.3	47.7	> 100	35.8	48.5	46.6	40.8	26.1	86.6	> 100		30.8	36.5	33.1	29
O=C(O)[C@@H]1CCC(=O)N1C(c1ccc2c(c1)OCO2)c1ccc2c(c1)OCO2	> 100	> 100	> 100	> 100	> 100	> 100	> 100	> 100	> 100	> 100	> 100	> 100	> 100	> 100		> 100	> 100	> 100	> 100
Cc1n[nH]c(=O)n1/N=C/c1cccs1	> 100	> 100	> 100		> 100	> 100		> 100	> 100	> 100	> 100	> 100	> 100	> 100	> 100	> 100	> 100		
CSC1=NC(C(N)=O)C(N)N1C (centres undefined)	> 100		> 100	> 100	> 100	> 100	> 100	> 100	> 100	> 100	> 100	> 100	> 100		> 100	> 100	> 100	> 100	> 100
CCCc1c[nH]c(-c2ccc(-c3cc(CCC)c(C=O)[nH]3)s2)c1	34.6		33.7	45.5	30	35.2	28.7		29.2	18.3	33.3	28.5	33.5	34.8	36.1	28.5	16.9	31.1	49.8
